Reference: ChEMBL document CHEMBL1909046, “DrugMatrix in vitro pharmacology data”
pIC50, pKi: −log10 of the molar value.

Assays:
[1] = target: T1, Alpha-1B adrenergic receptor (Rattus norvegicus, UniProt P15823); test: DRUGMATRIX: Alpha-1B adrenergic receptor radioligand binding (ligand: prazosin); format: cell membranes, Wistar, Liver, Membrane; details: Not Active = under 50% inhibition at 10 µM
T1 sequence (P15823 whole entry): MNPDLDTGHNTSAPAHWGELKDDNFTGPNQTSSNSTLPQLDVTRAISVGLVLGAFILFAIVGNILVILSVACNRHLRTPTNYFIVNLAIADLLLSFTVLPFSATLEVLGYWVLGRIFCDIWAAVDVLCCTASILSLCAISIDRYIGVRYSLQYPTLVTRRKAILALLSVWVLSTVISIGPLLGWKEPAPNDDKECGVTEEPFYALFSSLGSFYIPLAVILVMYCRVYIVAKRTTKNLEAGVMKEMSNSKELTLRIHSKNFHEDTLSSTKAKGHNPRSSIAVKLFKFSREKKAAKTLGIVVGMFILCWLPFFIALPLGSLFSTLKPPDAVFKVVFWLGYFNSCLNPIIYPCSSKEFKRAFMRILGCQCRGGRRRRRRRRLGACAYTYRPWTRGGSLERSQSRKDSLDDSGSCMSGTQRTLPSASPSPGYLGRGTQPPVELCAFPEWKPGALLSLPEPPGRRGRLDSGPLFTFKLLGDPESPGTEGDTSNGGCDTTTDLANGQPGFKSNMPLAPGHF

[2] = target: Beta-3 adrenergic receptor (Homo sapiens, UniProt P13945); test: DRUGMATRIX: Adrenergic beta3 radioligand binding (ligand: [125I] Cyanopindolol); format: cell membranes, HEK293, Membrane; details: Not Active = under 50% inhibition at 10 µM; for IC50: hek293; for pIC50: read-out: IC50; for pKi: read-out: Ki
[3] = target: Sodium-dependent dopamine transporter (Homo sapiens, UniProt Q01959); test: DRUGMATRIX: Dopamine Transporter radioligand binding (ligand: [125I] RTI-55); format: cell membranes, CHO-K1, Membrane; details: Not Active = under 50% inhibition at 10 µM; for IC50: cho-k1; for pIC50: read-out: IC50; for pKi: read-out: Ki
[4] = target: T2, Endothelin-1 receptor (Homo sapiens, UniProt P25101); format: cell membranes, Membrane; details: cho-k1; further: in other assays of this panel Not Active means under 50% inhibition at 10 µM
T2 sequence (P25101 whole entry): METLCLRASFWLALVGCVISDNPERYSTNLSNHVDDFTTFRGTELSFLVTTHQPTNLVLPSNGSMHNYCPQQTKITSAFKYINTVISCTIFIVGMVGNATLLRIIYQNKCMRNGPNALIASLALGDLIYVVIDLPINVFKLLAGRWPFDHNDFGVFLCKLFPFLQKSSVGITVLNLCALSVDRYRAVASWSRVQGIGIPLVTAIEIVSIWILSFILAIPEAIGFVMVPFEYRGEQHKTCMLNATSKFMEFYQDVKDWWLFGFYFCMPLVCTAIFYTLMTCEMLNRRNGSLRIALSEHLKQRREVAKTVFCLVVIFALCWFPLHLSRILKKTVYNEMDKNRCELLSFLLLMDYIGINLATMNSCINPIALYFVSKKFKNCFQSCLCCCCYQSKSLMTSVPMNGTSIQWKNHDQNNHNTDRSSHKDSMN

[5] = DRUGMATRIX: Glutamate, NMDA, Phencyclidine radioligand binding (ligand: [3H] TCP); format: cell membranes, Rattus norvegicus, Wistar, Cerebral cortex, Membrane; details: Not Active = under 50% inhibition at 10 µM
[6] = DRUGMATRIX: Interleukin IL-1 radioligand binding (ligand: [125I] interleukin 1beta); format: cell membranes, Membrane; details: nih3t3; Not Active = under 50% inhibition at 10 µM
[7] = target: T3, Angiotensin-converting enzyme (Oryctolagus cuniculus, UniProt P12822); test: biochemical; format: tissue-based, Lung;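 further: enzymatic inhibition of angiotensin-converting enzyme measured with FAPGG as the substrate; in other assays of this panel Not Active means under 50% inhibition at 10 µM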
T3 sequence (P12822 whole entry): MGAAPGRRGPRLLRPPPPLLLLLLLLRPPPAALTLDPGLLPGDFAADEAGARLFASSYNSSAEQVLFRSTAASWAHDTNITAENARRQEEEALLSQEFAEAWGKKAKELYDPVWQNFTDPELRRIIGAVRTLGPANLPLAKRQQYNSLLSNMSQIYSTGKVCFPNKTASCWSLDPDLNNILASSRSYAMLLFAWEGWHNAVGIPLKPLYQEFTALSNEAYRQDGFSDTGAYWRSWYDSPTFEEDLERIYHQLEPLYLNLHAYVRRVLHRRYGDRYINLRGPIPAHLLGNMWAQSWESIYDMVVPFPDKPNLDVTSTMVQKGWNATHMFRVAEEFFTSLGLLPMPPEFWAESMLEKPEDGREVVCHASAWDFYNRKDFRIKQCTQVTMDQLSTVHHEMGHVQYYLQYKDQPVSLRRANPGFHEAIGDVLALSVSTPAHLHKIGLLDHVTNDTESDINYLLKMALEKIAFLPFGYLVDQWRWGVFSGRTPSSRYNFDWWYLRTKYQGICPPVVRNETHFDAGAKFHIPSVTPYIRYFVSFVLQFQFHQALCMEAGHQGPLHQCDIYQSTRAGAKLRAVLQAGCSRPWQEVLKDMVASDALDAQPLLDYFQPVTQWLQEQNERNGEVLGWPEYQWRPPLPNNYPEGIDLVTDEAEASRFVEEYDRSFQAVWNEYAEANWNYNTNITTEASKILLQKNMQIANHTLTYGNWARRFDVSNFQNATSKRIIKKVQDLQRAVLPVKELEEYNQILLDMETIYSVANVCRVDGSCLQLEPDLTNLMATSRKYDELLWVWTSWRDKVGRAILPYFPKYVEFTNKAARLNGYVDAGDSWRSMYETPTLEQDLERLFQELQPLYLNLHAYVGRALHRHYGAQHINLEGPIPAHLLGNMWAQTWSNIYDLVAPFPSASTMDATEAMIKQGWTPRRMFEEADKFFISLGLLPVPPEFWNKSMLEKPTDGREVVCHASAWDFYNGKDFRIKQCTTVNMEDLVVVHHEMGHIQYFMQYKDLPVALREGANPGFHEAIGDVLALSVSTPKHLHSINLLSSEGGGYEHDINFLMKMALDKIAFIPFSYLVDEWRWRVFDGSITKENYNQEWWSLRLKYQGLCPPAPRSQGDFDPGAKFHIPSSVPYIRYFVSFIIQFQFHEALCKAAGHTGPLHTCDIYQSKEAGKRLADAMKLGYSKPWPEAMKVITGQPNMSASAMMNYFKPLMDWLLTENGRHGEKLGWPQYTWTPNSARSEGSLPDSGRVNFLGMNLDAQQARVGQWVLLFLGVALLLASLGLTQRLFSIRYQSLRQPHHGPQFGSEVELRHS

[8] = target: Mitogen-activated protein kinase 1 (Homo sapiens, UniProt P28482); test: DRUGMATRIX: Protein Serine/Threonine Kinase, ERK2 enzyme inhibition (substrate: Myelin Basic Protein); parameters: species or system Escherichia coli; details: Not Active = under 50% inhibition at 10 µM; for pIC50: read-out: IC50
Chain of Mitogen-activated protein kinase 1 (P28482 whole entry): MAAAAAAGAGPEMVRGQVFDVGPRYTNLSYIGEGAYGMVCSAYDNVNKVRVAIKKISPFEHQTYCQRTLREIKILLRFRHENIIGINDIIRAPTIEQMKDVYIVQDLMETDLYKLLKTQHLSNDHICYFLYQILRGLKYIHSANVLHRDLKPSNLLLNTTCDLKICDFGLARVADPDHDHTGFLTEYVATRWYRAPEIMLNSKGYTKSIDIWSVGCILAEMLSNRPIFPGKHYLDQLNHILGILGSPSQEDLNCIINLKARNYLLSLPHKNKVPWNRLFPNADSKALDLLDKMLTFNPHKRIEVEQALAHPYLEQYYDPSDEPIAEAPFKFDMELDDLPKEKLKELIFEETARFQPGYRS

Chain of Sodium-dependent dopamine transporter (Q01959 whole entry): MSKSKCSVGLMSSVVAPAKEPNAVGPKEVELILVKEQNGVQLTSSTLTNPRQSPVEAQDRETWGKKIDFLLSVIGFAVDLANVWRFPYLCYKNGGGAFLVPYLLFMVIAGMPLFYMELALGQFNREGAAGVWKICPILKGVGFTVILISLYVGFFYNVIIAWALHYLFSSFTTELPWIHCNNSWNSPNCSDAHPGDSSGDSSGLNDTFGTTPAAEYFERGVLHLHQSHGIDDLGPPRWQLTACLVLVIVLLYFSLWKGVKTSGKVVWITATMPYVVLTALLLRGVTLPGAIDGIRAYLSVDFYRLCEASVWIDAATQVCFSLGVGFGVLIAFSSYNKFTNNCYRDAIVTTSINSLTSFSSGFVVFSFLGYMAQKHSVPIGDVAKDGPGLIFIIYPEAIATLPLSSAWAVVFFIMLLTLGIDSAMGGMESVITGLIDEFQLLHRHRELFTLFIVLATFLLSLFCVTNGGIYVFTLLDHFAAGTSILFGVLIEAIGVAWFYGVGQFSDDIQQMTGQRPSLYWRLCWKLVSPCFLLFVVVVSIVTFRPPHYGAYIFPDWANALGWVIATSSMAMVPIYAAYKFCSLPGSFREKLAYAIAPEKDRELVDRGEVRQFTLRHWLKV
Chain of Beta-3 adrenergic receptor (P13945 whole entry): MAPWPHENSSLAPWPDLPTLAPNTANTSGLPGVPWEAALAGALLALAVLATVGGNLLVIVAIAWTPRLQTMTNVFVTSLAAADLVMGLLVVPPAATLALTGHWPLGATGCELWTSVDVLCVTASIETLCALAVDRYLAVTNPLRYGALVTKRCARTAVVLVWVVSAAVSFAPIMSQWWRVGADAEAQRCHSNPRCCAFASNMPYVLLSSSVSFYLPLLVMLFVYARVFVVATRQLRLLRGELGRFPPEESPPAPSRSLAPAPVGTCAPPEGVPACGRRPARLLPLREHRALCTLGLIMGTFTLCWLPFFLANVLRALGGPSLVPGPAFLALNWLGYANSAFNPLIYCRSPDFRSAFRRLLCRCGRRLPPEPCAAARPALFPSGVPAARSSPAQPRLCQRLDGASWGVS

Structure (SMILES)	IC50 [1]	IC50 [2]	IC50 [3]	IC50 [4]	IC50 [5]	Ki [5]	IC50 [6]	Ki [6]	IC50 [7]	IC50 [8]	pIC50 [2]	pKi [2]	pIC50 [3]	pKi [3]	pIC50 ([7]; read-out: IC50)	pIC50 [8]	pIC50 ([1]; read-out: IC50)	pKi ([1]; read-out: Ki)
CCOC(=O)[C@H](CCc1ccccc1)N[C@@H](C)C(=O)N1[C@H](C(=O)O)C[C@@H]2CCC[C@@H]21	Not Active	Not Active	Not Active	Not Active	Not Active	Not Active	Not Active	Not Active	Not Active	Not Active	–	–	–	–	–	–	–	–
CC(C)(C)NC(=O)[C@@H]1CN(Cc2cccnc2)CCN1C[C@@H](O)C[C@@H](Cc1ccccc1)C(=O)N[C@H]1c2ccccc2C[C@H]1O.O	Not Active	Not Active	Not Active	Not Active	Not Active	Not Active	Not Active	Not Active	Not Active	Not Active	–	–	–	–	–	–	–	–
CC1(C)[C@H]2CC[C@]1(C)C(=O)C2 [(-)-CAMPHOR]	Not Active	Not Active	Not Active	Not Active	Not Active	Not Active	Not Active	Not Active	Not Active	Not Active	–	–	–	–	–	–	–	–
CC(C)(C)NCC(O)c1ccc(O)c(CO)c1 (centres undefined) [ALBUTEROL]	Not Active	Not Active	Not Active	Not Active	Not Active	Not Active	Not Active	Not Active	Not Active	Not Active	–	–	–	–	–	–	–	–
COc1ccc(CCN2CCC(Nc3nc4ccccc4n3Cc3ccc(F)cc3)CC2)cc1 [ASTEMIZOLE]	–	–	–	Not Active	–	–	–	–	Not Active	Not Active	–	–	–	–	–	–	–	–
CN(C)CCCN1c2ccccc2CCc2ccc(Cl)cc21 [CLOMIPRAMINE]	–	Not Active	–	Not Active	–	–	–	–	Not Active	Not Active	–	–	–	–	–	–	–	–
Clc1ccccc1C(c1ccccc1)(c1ccccc1)n1ccnc1 [CLOTRIMAZOLE]	–	–	–	Not Active	–	–	–	–	Not Active	Not Active	5.14	5.27	5.25	5.35	–	–	–	–
O=C(CCCN1CCC(O)(c2ccc(Cl)cc2)CC1)c1ccc(F)cc1 [HALOPERIDOL]	–	Not Active	–	Not Active	–	–	–	–	Not Active	Not Active	–	–	–	–	–	–	–	–
Oc1c(I)cc(I)c2cccnc12 [IODOQUINOL]	Not Active	Not Active	Not Active	Not Active	Not Active	Not Active	Not Active	Not Active	–	–	–	–	–	–	6.04	6.53	–	–
NNC(=O)c1ccncc1 [ISONIAZID]	Not Active	Not Active	Not Active	Not Active	Not Active	Not Active	Not Active	Not Active	Not Active	Not Active	–	–	–	–	–	–	–	–
CC1=C(/C=C/C(C)=C/C=C/C(C)=C\C(=O)O)C(C)(C)CCC1 [ISOTRETINOIN]	Not Active	Not Active	Not Active	Not Active	Not Active	Not Active	Not Active	Not Active	Not Active	–	–	–	–	–	–	6.34	–	–
CO[C@@H]1[C@@H](O[C@@H]2O[C@H](C)[C@@H](O[C@H]3C[C@@](C)(O)[C@@H](OC(=O)CC(C)C)[C@H](C)O3)[C@H](N(C)C)[C@H]2O)[C@@H](CC=O)C[C@@H](C)[C@@H](O)/C=C/C=C/C[C@@H](C)OC(=O)C[C@H]1O [KITASAMYCIN]	Not Active	Not Active	Not Active	Not Active	Not Active	Not Active	Not Active	Not Active	Not Active	Not Active	–	–	–	–	–	–	–	–
CC(CCc1ccccc1)NCC(O)c1ccc(O)c(C(N)=O)c1 (centres undefined) [LABETALOL]	–	Not Active	–	Not Active	Not Active	Not Active	Not Active	Not Active	Not Active	Not Active	–	–	5.79	5.89	–	–	6.23	6.49
CN1CCN2c3ccccc3Cc3ccccc3C2C1 (centres undefined) [MIANSERIN]	–	Not Active	Not Active	Not Active	–	–	–	–	Not Active	Not Active	–	–	–	–	–	–	–	–
CC(C)(O)c1ccccc1CC[C@@H](SCC1(CC(=O)O)CC1)c1cccc(/C=C/c2ccc3ccc(Cl)cc3n2)c1 [MONTELUKAST]	–	–	–	Not Active	–	–	–	–	Not Active	Not Active	5.37	5.49	–	–	–	–	–	–
CSc1ccc2c(c1)N(CCC1CCCCN1C)c1ccccc1S2 (centres undefined) [THIORIDAZINE]	–	Not Active	–	Not Active	–	–	–	–	Not Active	Not Active	–	–	–	–	–	–	–	–
COc1cccc(C2(O)CCCCC2CN(C)C)c1 (centres undefined) [TRAMADOL]	–	Not Active	Not Active	Not Active	–	–	–	–	Not Active	Not Active	–	–	–	–	–	–	–	–
